Experimental data as given in the METLIN SMRT retention time set (Domingo-Almenara et al. 2019).

Assay: gradient 5% acetonitrile 3 min, to 50% in 2 min, to 85% in 15 min, held 3 min, 100 µL/min
Conditions: column: Zorbax Extend-C18 2.1 x 50 mm; eluents: water / acetonitrile, 0.1% formic acid
Procedure, shortened: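 The mobile phases were water and acetonitrile, each with 0.1% formic acid, pumped at 100 μL/min through a Zorbax Extend-C18 column (2.1 × 50 mm, 1.8 μm). Pure standards were injected as mixtures of ~100 molecules and detected by a quadrupole time-of-flight mass spectrometer in positive and negative ionization mode. Retention time came from computationally picked adduct peaks, each inspected by hand.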

Row | SMILES | RP-LC retention time
1 | Cn1nccc1C(=O)N1CCN(C(=O)c2cc(-c3ccncc3)n[nH]2)CC1 | 523 s
2 | CN1CCCCCCN(C(=O)Nc2ccc3c(c2)OCCO3)CCC1=O | 745 s
3 | CN1CCN(C(=O)Cn2c(-c3cccs3)cc3ccccc32)CC1 | 671 s
4 | c1cnc(N2CCN(Cc3ccc4c(c3)OCO4)CC2)nc1 | 432 s
5 | CN(C)S(=O)(=O)N1CCc2nc(NC(=O)c3cccs3)sc2C1 | 729 s
6 | Cc1ccc2ncc(C(=O)NCCCOC(C)C)c(=O)n2c1 | 656 s
7 | CSc1ccc(NC(=O)N2CCN(c3cnn4c(C5CC5)nnc4c3)CC2)cc1 | 668 s
8 | Fc1ccc(F)c(-c2nc(-c3ccc(-n4cccn4)nc3)no2)c1 | 1170 s
9 | Cn1ccc2c(cc(C(=O)NCc3ccc(N4CCOCC4)cc3)n2C)c1=O | 614 s
10 | CCCNC(=O)C(=O)NCC(c1ccc2c(c1)CCCN2C)N1CCCC1 (centres undefined) | 647 s
11 | C=CCN(CC=C)S(=O)(=O)c1ccc(C(=O)N2CCc3ccccc3C2)cc1 | 940 s
12 | O=C(c1ccc(OCC2CCN(C(=O)C3CCCC3)CC2)cc1)N1CCOCC1 | 764 s
13 | CCN1CCN(C(=O)CC2CCN(S(=O)(=O)c3ccc(Cl)s3)CC2)CC1 | 647 s
14 | Cc1onc(-c2ccccc2)c1-c1ccc(S(N)(=O)=O)cc1 | 869 s
15 | O=c1c2cnn(-c3ccc(F)cc3)c2ncn1Cc1nc(-c2ccc(Br)cc2)no1 | 1140 s
16 | O=C(C1CCN(c2cnc3nccnc3c2)CC1)N1CCN(c2ccccc2F)CC1 | 747 s
17 | CC(C)CCN1CC(=O)N(Cc2ccc(N3CCOCC3)cc2)C(c2cccs2)C1=O (centres undefined) | 836 s
18 | Cc1ncc2c(n1)C[C@@H]1CC[C@H]2N1S(=O)(=O)c1ccc2c(c1)C(C)(C)C(=O)N2 | 636 s
19 | O=C(c1cccc(Cl)c1)N1CCN(C(=O)c2nnn3c2COC(c2ccc(F)cc2)C3)CC1 (centres undefined) | 913 s
20 | Cc1cccc(N2C(=O)CN(CCc3cccs3)[C@H]3CS(=O)(=O)C[C@H]32)c1 | 814 s
21 | CN1CCN(c2cccc(Nc3nc4c(-c5ccc(S(C)(=O)=O)cc5)cccn4n3)c2)CC1 | 675 s
22 | Cc1cc(C)c(S(=O)(=O)N2CCC3(CC2)c2nccn2CCN3C)c(C)c1 | 684 s

Row | SMILES | RP-LC retention time
23 | O=C(Nc1nccs1)C1CCN(C(=O)c2ccccn2)CC1 | 555 s
24 | Cc1noc(C)c1S(=O)(=O)N1CCC2(CC1)N(c1ccccc1)C(=O)CS2=O (centres undefined) | 708 s
25 | CCN(CC)CCCNC(=O)CN1C(=O)C2CCCCN2c2ccc(C(=O)N(C)C)cc21 (centres undefined) | 595 s
26 | O=C(CN1CC=C(c2cnn(-c3ccc(F)cc3)c2)CC1)N1CCN(c2ccc(F)cc2)CC1 | 739 s
27 | O=C(Cn1nc(-c2ccco2)ccc1=O)N1CCN(c2ncccn2)CC1 | 615 s
28 | COCCCNC(=O)CCC[C@@H]1[C@H]2CCCN3CCC[C@@H](CN1C)[C@@H]23 | 709 s
29 | Cc1ccc(N(C)S(=O)(=O)c2cc3n(c2)CCCN(C(C)C)C3=O)cc1 | 865 s
30 | Cc1cc(N2CCN(C(=O)c3ccco3)CC2)nc(N2CCOCC2)n1 | 566 s
31 | CCCN1C(=O)C2CCC(=O)N2c2ccc(C(=O)NCCCN3CCCC3=O)cc21 (centres undefined) | 631 s
32 | O=C(CN1C(=O)c2ccccc2C1=O)NCCS(=O)(=O)N1CCc2ccccc2C1 | 744 s
33 | Cn1c(N2CCCC(C(=O)NCc3ccc(F)cc3)C2)cc(=O)n(C)c1=O (centres undefined) | 680 s
34 | N=C(N)SCCc1ccc(OCc2ccc([N+](=O)[O-])cc2)cc1 | 787 s
35 | CN(CC1CCOCC1)C(=O)Nc1ccccc1C(F)(F)F | 738 s
36 | N#C/C(=C\c1ccc[nH]1)C(=O)c1ccccc1 | 892 s
37 | O=C([C@@H]1C[C@H](Oc2cccnc2)CN1C(=O)c1ccoc1)N1CCCC1 | 553 s
38 | O=S(=O)(Cc1ccccc1F)N1CCC(c2noc(COCC3CC3)n2)CC1 | 962 s
39 | O=C([C@@H]1C[C@H](F)CN1C(=O)c1ccc(F)cc1)N1CCCCC1 | 684 s
40 | Fc1ccc(Cn2cccc2-c2nc(-c3ccncc3)no2)cc1 | 1100 s
41 | COc1cc(NC(=O)C2CN(S(=O)(=O)C3CC3)CC23CCCCC3)cc(OC)c1 (centres undefined) | 955 s
42 | O=C(Cn1cnc2nc(N3CCC(C(=O)NC4CC4)CC3)sc2c1=O)NCc1ccc(F)cc1 | 655 s
43 | O=C(c1ccc(Br)o1)N1C[C@@H](CO)[C@H](c2ccncc2)C1 | 515 s
44 | CCn1cc(C(=O)NCC2CC2)c(S(=O)(=O)N2CCSCC2)n1 | 817 s

The next lines start with the values.

Row | RP-LC retention time | SMILES
45 | 888 s | COc1ccc(-n2c(=O)n(C)c(=O)c3cc(C(=O)NC(C)c4ccc(F)cc4)cnc32)cc1 (centres undefined)
46 | 782 s | CC(C)c1ccc(NC(=O)Cn2nc3c4sc(N(C)C)nc4ncn3c2=O)cc1
47 | 916 s | COc1ccc(-c2nnc(Cc3nc(-c4ccc5c(c4)OCO5)no3)o2)cc1
48 | 701 s | COc1ccc(S(=O)(=O)N2CCCC(C(N)=O)C2)cc1Cl (centres undefined)
49 | 905 s | COc1ccc(C(=O)Nc2cccn3nc(C4CCC4)nc23)cc1
50 | 1150 s | COC(=O)c1ccc2c(=O)n(-c3cccc(F)c3)c(N3CCCCC3)nc2c1
51 | 609 s | CN(C)c1ccc(-c2nc3cnccn3c2Nc2cccc(C(N)=O)c2)cc1
52 | 723 s | CCOC(=O)Cc1ccc(NC(=O)Nc2cccn3c(C)nnc23)cc1
53 | 652 s | Cc1ccnc(NS(=O)(=O)c2ccc(N)cc2)n1
54 | 692 s | CC(C)c1cccc(NC(=O)C2CCCN(c3cn[nH]c(=O)c3)C2)c1 (centres undefined)
55 | 1020 s | COc1ccc(S(=O)(=O)N2CCCC(C(=O)N3CCc4ccccc4C3)C2)cc1Cl (centres undefined)
56 | 786 s | Cc1ccc(CNC(=O)c2c(OCC(C)C)cc(=O)n3c2CCCCC3)o1
57 | 848 s | CCc1nc(OCC(=O)Nc2cc(Cl)c(OC)cc2OC)c2ccccc2n1
58 | 891 s | Cc1cccc(NC(=O)C2CCCN2S(=O)(=O)c2cc3c(cc2Cl)NC(=O)CO3)c1C (centres undefined)
59 | 831 s | CCc1nn(C)c(=O)c2cc(S(=O)(=O)NCc3ccccc3)cn12
60 | 873 s | COc1ccccc1-n1ccn2cc(-c3cccc(Cl)c3)nc2c1=O
61 | 752 s | CCNC(=O)NCc1nc(-c2ccc(Cl)cc2)no1
62 | 630 s | Cn1nccc1C(=O)N1CCc2c(c(CO)nn2Cc2ccccc2)C1
63 | 802 s | Cc1ccc(NC(=O)Cn2ccc3sccc3c2=O)c(Cl)c1
64 | 656 s | Cc1ccc(Nc2c(-c3ccc(O)cc3)nc3ccccn23)cc1
65 | 590 s | COC[C@@H]1CN(Cc2ccc(OC)cc2OC)C[C@H]1c1ccncc1
66 | 889 s | CS(=O)(=O)N(CC(=O)NCc1ccc2c(c1)OCCCO2)Cc1ccc(Cl)cc1
67 | 831 s | COc1ccccc1C(=O)N1CCCC1c1cc(C(C)C)on1 (centres undefined)

Row | RP-LC retention time | SMILES
68 | 841 s | O=C(Nc1ccccc1C(F)(F)F)NC1CCN(c2ccccc2)C1=O (centres undefined)
69 | 602 s | CC(C)NC(=O)c1ccc2c(c1)nc(CN(C)C(=O)NCc1ccco1)n2C
70 | 633 s | Cc1nn(CC(=O)NCc2ccccn2)c(=O)c2nc(-c3ccccc3)sc12
71 | 780 s | COc1cccc(NC(=O)N2CCC3(CC2)NC(=O)c2ccc(Cl)cc2N3C)c1
72 | 690 s | C[C@@H](Oc1cc(-n2cnc3ccc(CN4CCN(C)CC4)cc32)sc1C(N)=O)c1ccccc1C(F)(F)F
73 | 1090 s | Cc1cc(Cl)ccc1NC(=O)c1cc(C(C)C)on1
74 | 963 s | Cc1nn(-c2ccccc2)c(C)c1S(=O)(=O)N1CCC(C(=O)NCc2ccccc2Cl)CC1
75 | 558 s | CNC(=O)c1cc(NC(=O)C2CCC2)cc2nc(C)ccc12
76 | 631 s | COCCNc1c(-c2ccc(F)cc2)nc2sc(C(=O)NCc3cccnc3)c(C)n12
77 | 684 s | COc1cccc(CNC(=O)NCCc2nc3cccnc3n2C2CCCC2)c1
78 | 958 s | COc1ccccc1N1CCN(c2cc(SCC(=O)Nc3c(C)cccc3C)ncn2)CC1
79 | 1080 s | Cc1ccc(NC(=O)N2CCCC(C)(C(=O)NCc3ccccc3C)C2)cc1Cl (centres undefined)
80 | 569 s | COCCNc1c(-c2ccc(F)cc2)nc2sc(C(=O)N3CCN(C)CC3)c(C)n12
81 | 822 s | COC(=O)c1c(-c2ccc(OC)cc2)csc1N
82 | 964 s | CC1CCN(c2cc(-n3cnc(C(=O)NCc4ccc5c(c4)OCO5)c3)ncn2)CC1
83 | 846 s | COc1cc(CNC(=O)c2nnc(-c3ccc(S(=O)(=O)N(C)C)cc3)o2)cc(OC)c1
84 | 996 s | CCn1cc(-c2nc(CC(=O)Nc3ccc(Cl)cc3)cs2)c2cccnc21
85 | 686 s | COc1cc(=O)c(C(=O)NC(C)C)nn1-c1ccc(F)cc1
86 | 1040 s | Cc1ccc(NS(=O)(=O)c2ccc(-c3c(C)noc3C)cc2)cc1Cl
87 | 717 s | COCC(=O)Nc1nnc(SCc2nnc(-c3ccc4c(c3)OCO4)o2)s1
88 | 952 s | CCCCOc1ccc(-c2cc3c4nnc(CCC(=O)NCc5ccc(F)cc5)n4ccn3n2)cc1
89 | 650 s | CCCC(=O)Nc1ccc2c(c1)CC(C(=O)NCC(=O)OC)CO2 (centres undefined)
